Results on 10 compounds are retold here after patent US7550459B2, “Tetrahydroquinoline analogues as muscarinic agonists” (Acadia Pharmaceuticals, Inc., priority 2001, dated 2009).

Molecules are shown by their SMILES. pEC50: −log10 of the molar value. Where two headings read alike, the source gives them in different places.

By pEC50 is commonly meant the EC50 on a negative log10 scale, so that one unit is a factor of ten.

One experiment addresses T1, M1 muscarinic receptor (Homo sapiens, UniProt P11229).
T1 construct: expressed in transfected cells
T1 sequence (P11229 1-460): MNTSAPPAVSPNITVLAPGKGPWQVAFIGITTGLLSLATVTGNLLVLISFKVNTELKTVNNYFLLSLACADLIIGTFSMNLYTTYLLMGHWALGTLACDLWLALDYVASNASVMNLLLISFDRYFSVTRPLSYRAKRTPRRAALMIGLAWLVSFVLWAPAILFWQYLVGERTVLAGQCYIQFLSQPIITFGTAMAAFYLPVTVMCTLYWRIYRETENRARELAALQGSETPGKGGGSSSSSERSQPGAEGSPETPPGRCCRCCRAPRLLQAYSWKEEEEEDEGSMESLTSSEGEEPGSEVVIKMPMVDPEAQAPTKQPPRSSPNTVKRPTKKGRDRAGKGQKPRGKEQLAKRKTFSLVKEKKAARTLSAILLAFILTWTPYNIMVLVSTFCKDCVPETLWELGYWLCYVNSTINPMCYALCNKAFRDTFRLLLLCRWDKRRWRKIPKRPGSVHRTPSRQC
As to the kind of experiment: Receptor Selection and Amplification (R-SAT) assay, cloned M1 receptor. The class given is cell-based. Details: M1 Eff: scale not given here. Conditions: second table (COMPOUND ID series); for M1 Eff / EC50: R-SAT; for EC50: read-out: M1 pEC50 (converted); for pEC50: M1 pEC50, R-SAT. From the text:
(§1) The EC50 for an agonist is intended to denote the concentration of a compound needed to achieve 50% of a maximal response seen in an in vitro assay such as R-SAT. For inverse agonists, EC50 is intended to denote the concentration of a compound needed to achieve 50% inhibition of an R-SAT response from basal, no compound, levels.
(§2) A particularly convenient functional assay system is the receptor selection and amplification assay (R-SAT assay) in U.S. Pat. No. 5,707,798, which describes a method of screening for bioactive compounds by utilizing the ability of cells transfected with receptor DNA, e.g., coding for the different muscarinic subtypes, to amplify in the presence of a ligand of the receptor. Cell amplification is detected as increased levels of a marker also expressed by the cells.
(§3) Receptor Selection and Amplification (R-SAT) assays were carried out using the cloned M1-M5 receptors essentially as described in: Brauner-Osborne H, Brann M R. Pharmacology of muscarinic acetylcholine receptor subtypes (m1-m5): high throughput assays in mammalian cells. Eur J Pharmacol Jan. 4, 1996;295(1):93-102, and Spalding T A, Trotter C, Skjaerbaek N, Messier T L, Currier E A, Burstein E S, Li D, Hacksell U, Brann M R. Discovery of an ectopic activation site on the M(1) muscarinic receptor. Mol Pharmacol. 2002 June;61(6):1297-302.

Another experiment addresses T2, M2 muscarinic receptor (Homo sapiens, UniProt P08172).
T2 construct: expressed in transfected cells
T2 sequence (P08172 1-466): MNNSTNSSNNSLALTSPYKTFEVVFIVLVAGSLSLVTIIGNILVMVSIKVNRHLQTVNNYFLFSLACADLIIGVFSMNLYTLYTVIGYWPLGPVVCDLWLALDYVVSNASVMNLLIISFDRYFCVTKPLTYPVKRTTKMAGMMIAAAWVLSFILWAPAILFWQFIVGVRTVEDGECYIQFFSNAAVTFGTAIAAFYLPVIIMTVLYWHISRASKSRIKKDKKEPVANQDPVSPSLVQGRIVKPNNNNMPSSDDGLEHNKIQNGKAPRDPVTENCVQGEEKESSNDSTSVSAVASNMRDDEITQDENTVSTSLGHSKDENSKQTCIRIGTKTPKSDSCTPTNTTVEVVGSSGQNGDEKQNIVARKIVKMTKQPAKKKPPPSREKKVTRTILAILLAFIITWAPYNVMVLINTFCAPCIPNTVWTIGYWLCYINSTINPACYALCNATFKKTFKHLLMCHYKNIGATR
The experiment can be described thus: Receptor Selection and Amplification (R-SAT) assay, cloned M2 receptor. Conditions: second table (COMPOUND ID series); for M2 Eff / EC50: R-SAT; for EC50: read-out: M2 pEC50 (converted); for pEC50: M2 pEC50, R-SAT. More on the design: M2 Eff: scale not given here. It counts as cell-based.
Text: as §1, §2, §3

Turning to `O=C1CCc2cc(F)c(F)cc2N1CCCN1CCC(OCC2CC2)CC1` [Compound 00262272, 1-[3-(4-Cyclopropylmethoxypiperidin-1-yl)propyl]-6,7-difluoro-3,4-dihydro-1H-quinolin-2-one], at M1 muscarinic receptor, the “M1 Eff” value was 94 and the EC50 is 50.1 nM. Further, on M2 muscarinic receptor, the “M2 Eff” value is listed as 57 and the EC50 was 1000 nM.
`CC(CN1C(=O)COc2ccccc21)CN1[C@@H]2CC[C@H]1C[C@@H](OCC1CC1)C2` (mixture of isomers) [Compound 00262573, (R,S)-4-[3-(3a-Cyclopropylmethoxy-8-azabicyclo[3.2.1]oct-8-yl)-2-methylpropyl]-4H-benzo[1.4]oxazin-3-one]: on M1 muscarinic receptor, the pEC50 is 8.40 and the “M1 Eff” value came out at 120. On M2 muscarinic receptor, the pEC50 was 7.30 and the “M2 Eff” value came out at 72.
In the case of `C[C@@H](CN1C(=O)COc2ccccc21)CN1[C@@H]2CC[C@H]1CC(=NOCC1CC1)C2` (mixture of isomers) [Compound 00261537, 4-[3-(3-Cyclopropylmethoxyimino-8-aza-bicyclo[3.2.1]oct-8-yl)-2(R)-methyl-propyl]-4H-benzo[1,4]oxazin-3-one], on M1 muscarinic receptor, the “M1 Eff” value stood at 126 and the EC50 was 126 nM. Besides, at M2 muscarinic receptor, the “M2 Eff” value is listed as 58 and the EC50 is 794 nM.
In the same order, the values of `CCc1cccc2c1OCC(=O)N2CC(C)CN1CCC(OCC2CC2)CC1` (racemic) [Compound 00262867, (R,S)-4-[3-(4-Cyclopropylmethoxypiperidin-1-yl)-2-methylpropyl]-8-ethyl-4H-benzo[1,4]oxazin-3-one] are 104, 79.4 nM, 32 and 1580 nM.
In the case of `CCOCCC1CC2CCC(C1)N2CC(C)CN1C(=O)COc2ccccc21` (single isomer, unassigned) [Compound 00262998], on M1 muscarinic receptor, the pEC50 is 8.10 and the “M1 Eff” value is 102. On M2 muscarinic receptor, the negative-log EC50 (pEC50) was 6.40 and the “M2 Eff” value is recorded as 56.
Take `CC(CN1CCC(OCC2CCC2)CC1)CN1C(=O)COc2ccccc21` (racemic) [Compound 00262197, 4-[(R,S)-3-(4-Cyclobutylmethoxypiperidin-1-yl)-2-methylpropyl]-4H-benzo[1.4]oxazin-3-one]: at M1 muscarinic receptor, the “M1 Eff” value was determined as 122 and the EC50 was 158 nM. For the same compound, on M2 muscarinic receptor, the “M2 Eff” value amounted to 28 and the EC50 is 2510 nM.
In the same order, the values of `O=C1COc2cc(F)c(F)cc2N1CCCN1CCC(OCC2CC2)CC1` [Compound 00262461, 4-[3-(4-Cyclopropylmethoxypiperidin-1-yl)propyl]-6,7-difluoro-4H-benzo[1.4]oxazin-3-one] are 95, 50.1 nM, 61 and 631 nM.
For the compound `O=C1CCc2cc(F)c(F)cc2N1CCCN1[C@@H]2CC[C@H]1C[C@@H](OCC1CC1)C2` [Compound 00262572, 1-[3-(3a-Cyclopropylmethoxy-8-aza-bicyclo[3.2.1]oct-8-yl)propyl]-6,7-difluoro-3,4-dihydro-1H-quinolin-2-one], on M1 muscarinic receptor, the pEC50 is 8.00 and the “M1 Eff” value came out at 82. On M2 muscarinic receptor, the negative-log EC50 (pEC50) was 6.70 and the “M2 Eff” value was determined as 31.
For `O=C1COc2cc(F)ccc2N1CCCN1CCC(OCC2CC2)CC1` [Compound 00262469, 4-[3-(4-Cyclopropylmethoxypiperidin-1-yl)propyl]-7-fluoro-4H-benzo[1,4]oxazin-3-one], on M1 muscarinic receptor, the “M1 Eff” value stood at 98 and the EC50 was 63.1 nM. Moreover, at M2 muscarinic receptor, the “M2 Eff” value is on record as 73 and the EC50 was 501 nM.
For `COCCC1CC2CCC(C1)N2CC(C)CN1C(=O)COc2ccccc21` [Compound 00263025, (R)-4-{3-[3a-(2-Methoxyethyl)-8-azabicyclo[3.2.1]oct-8-yl]-2-methylpropyl}-4H-benzo[1.4]oxazin-3-one], on M1 muscarinic receptor, the pEC50 was 8.50 and the “M1 Eff” value turned out to be 116. For the same compound, on M2 muscarinic receptor, the pEC50 is 6.80 and the “M2 Eff” value stood at 123.
